In patent US20150344485A1, “BICYCLIC PYRIMIDONE COMPOUNDS AS INHIBITORS OF LP-PLA2” (GLAXOSMITHKLINE INTELLECTUAL PROPERTY DEVELOPMENT LIMITED, priority 2013, published 2015):
Where two headings read alike, the source gives them in different places.

Assays:
[1] = target: T1, recombinant human Lp-PLA2 (Homo sapiens, UniProt Q13093); experiment: Recombinant human Lp-PLA2 assay (rhLp-PLA2, PED6 assay); type: biochemical
T1 sequence (Q13093 22-441): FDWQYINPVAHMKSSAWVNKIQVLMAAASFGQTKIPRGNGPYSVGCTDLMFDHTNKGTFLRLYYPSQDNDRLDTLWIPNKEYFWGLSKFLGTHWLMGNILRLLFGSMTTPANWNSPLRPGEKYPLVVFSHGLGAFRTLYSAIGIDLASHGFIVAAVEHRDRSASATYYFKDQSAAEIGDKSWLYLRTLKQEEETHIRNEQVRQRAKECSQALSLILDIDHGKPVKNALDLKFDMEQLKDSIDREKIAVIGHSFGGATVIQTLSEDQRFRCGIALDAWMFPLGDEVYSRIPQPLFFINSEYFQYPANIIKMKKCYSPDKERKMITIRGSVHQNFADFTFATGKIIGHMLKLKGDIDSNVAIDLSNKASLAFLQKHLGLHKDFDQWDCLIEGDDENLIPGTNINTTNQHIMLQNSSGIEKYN
In short: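 Enzyme (4 nM or 110 pM, as stated for the 5 μL addition) preincubated 30 min with compound in 50 mM HEPES pH 7.4, 150 mM NaCl, 1 mM CHAPS, then PED6 substrate (4 or 5 μM in the addition) added. Fluorescence (ex 480/em 540) read after 20 min, room temperature; pIC50 from curve fitting.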

[2] = target: T2, Lp-PLA2 in human plasma (Homo sapiens, UniProt Q13093); experiment: Lp-PLA2 human plasma assay (Thio-PAF assay); type: biochemical; conditions: pooled human plasma; read-out: pIC50 values in the thio-PAF assay (converted)
T2 construct: from tissue; host or cells: pooled human plasma
T2 sequence (Q13093 22-441): T1 sequence (Q13093 22-441)
In short: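 Pooled human plasma preincubated 30 min with compound, then 2-thio-PAF substrate added with CPM and NEM in 50 mM HEPES pH 7.4, 150 mM NaCl, 1 mM CHAPS. Quenched with TFA after 2 min, incubated 40 min at room temperature, and read by fluorescence at ex 380/em 485 nm. Values given as pIC50.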

[3] = read-out: pIC50 values in the recombinant human Lp-PLA2 assay (converted)
[4] = read-out: rhLp-PLA2 (PED6 assay) (pIC50) (converted)

IC50 [1, 3]	IC50 [2]	IC50 [1, 4]	SMILES
≤ 1 nM	≤ 100 nM		CN1c2cc(OCc3ccc(Oc4cccc(F)c4)c(C#N)c3)nc(=O)n2CCC1(C)C [E117, 2-(3-fluorophenoxy)-5-(((1,2,2-trimethyl-6-oxo-2,3,4,6-tetrahydro-1H-pyrimido[1,6-a]pyrimidin-8-yl)oxy)methyl)benzonitrile]
≤ 1 nM	≤ 100 nM		CN1c2cc(OCc3ccc(Oc4ccc(F)cc4)c(C#N)c3)nc(=O)n2CCC1(C)C [E118, 2-(4-fluorophenoxy)-5-(((1,2,2-trimethyl-6-oxo-2,3,4,6-tetrahydro-1H-pyrimido[1,6-a]pyrimidin-8-yl)oxy)methyl)benzonitrile]
≤ 1 nM	≤ 100 nM		C[C@@H]1CCn2c(cc(OCc3cc(F)c(Oc4ccc(C(F)(F)F)nc4)c(F)c3)nc2=O)N1C [E119, (R)-8-((3,5-difluoro-4-((6-(trifluoromethyl)pyridin-3-yl)oxy)benzyl)oxy)-1,2-dimethyl-3,4-dihydro-1H-pyrimido[1,6-a]pyrimidin-6(2H)-one]
≤ 1 nM	≤ 100 nM		C[C@@H]1CCn2c(cc(OCc3ccc(Oc4cccc(C(F)(F)F)c4)c(F)c3)nc2=O)N1C [E120, (R)-8-((3-fluoro-4-(3-(trifluoromethyl)phenoxy)benzyl)oxy)-1,2-dimethyl-3,4-dihydro-1H-pyrimido[1,6-a]pyrimidin-6(2H)-one]
≤ 1 nM	≤ 100 nM		C[C@@H]1CCn2c(cc(OCc3ccc(Oc4ccc(C(F)(F)F)cc4)c(F)c3)nc2=O)N1C [E121, (R)-8-((3-fluoro-4-(4-(trifluoromethyl)phenoxy)benzyl)oxy)-1,2-dimethyl-3,4-dihydro-1H-pyrimido[1,6-a]pyrimidin-6(2H)-one]
≤ 1 nM	≤ 100 nM		C[C@@H]1CCn2c(cc(OCc3cc(F)c(Oc4ccc(F)cc4)c(F)c3)nc2=O)N1C [E122, (R)-8-((3,5-difluoro-4-(4-fluorophenoxy)benzyl)oxy)-1,2-dimethyl-3,4-dihydro-1H-pyrimido[1,6-a]pyrimidin-6(2H)-one]
≤ 1 nM	≤ 10 nM		C[C@@H]1CCn2c(cc(OCc3ccc(Oc4cccc(C(F)(F)F)c4)c(C#N)c3)nc2=O)N1C [E123, (R)-5-(((1,2-dimethyl-6-oxo-2,3,4,6-tetrahydro-1H-pyrimido[1,6-a]pyrimidin-8-yl)oxy)methyl)-2-(3-(trifluoromethyl)phenoxy)benzonitrile]
≤ 1 nM	≤ 100 nM		C[C@@H]1CCn2c(cc(OCc3cc(F)c(Oc4ccc(Cl)cc4)c(F)c3)nc2=O)N1C [E124, (R)-8-((4-(4-chlorophenoxy)-3,5-difluorobenzyl)oxy)-1,2-dim ethyl-3,4-dihydro-1H-pyrimido[1,6-a]pyrimidin-6(2H)-one]
≤ 1 nM	≤ 100 nM		C[C@@H]1CCn2c(cc(OCc3ccc(Oc4ccc(F)cc4)c(C#N)c3)nc2=O)N1C [E125, (R)-5-(((1,2-dimethyl-6-oxo-2,3,4,6-tetrahydro-1H-pyrimido[1,6-a]pyrimidin-8-yl)oxy)methyl)-2-(4-fluorophenoxy)benzonitrile]
≤ 1 nM	≤ 100 nM		C[C@H]1CCn2c(cc(OCc3ccc(Oc4ccc(F)cc4)c(C#N)c3)nc2=O)N1C [E126, (S)-5-(((1,2-dimethyl-6-oxo-2,3,4,6-tetrahydro-1H-pyrimido[1,6-a]pyrimidin-8-yl)oxy)methyl)-2-(4-fluorophenoxyl)benzonitrile]
≤ 1 nM	≤ 10 nM		CN1c2cc(OCc3cccc(C#N)c3)nc(=O)n2CCC1(C)C [E133, 3-(((1,2,2-trimethyl-6-oxo-2,3,4,6-tetrahydro-1H-pyrimido[1,6-a]pyrimidin-8-yl)oxy)methyl)benzonitrile]
≤ 1 nM	≤ 10 nM		CN1c2cc(OCc3ccc(F)cc3)nc(=O)n2CCC1(C)C [E135, 8-((4-fluorobenzyl)oxy)-1,2,2-trimethyl-3,4-dihydro-1H-pyrimido[1,6-a]pyrimidin-6(2H)-one]
≤ 1 nM	≤ 100 nM		CC(C)N1c2cc(OCc3cc(F)c(F)c(F)c3)nc(=O)n2CC[C@@H]1C [E140, (S)-1-isopropyl-2-methyl-8-((3,4,5-trifluorobenzyl)oxy)-3,4-dihydro-1H-pyrimido[1,6-a]pyrimidin-6(2H)-one]
≤ 1 nM	≤ 10 nM		C[C@H]1CCn2c(cc(OCc3ccc(Oc4ccc(C(F)(F)F)nc4)c(F)c3)nc2=O)N1C [E142, (S)-8-((3-fluoro-4-((6-(trifluoromethyl)pyridin-3-yl)oxy)benzyl)oxy)-1,2-dimethyl-3,4-dihydro-1H-pyrimido[1,6-a]pyrimidin-6(2H)-one]
≤ 1 nM	≤ 10 nM		C[C@@H]1CCn2c(cc(OCc3ccc(Oc4ccc(Cl)c(C(F)(F)F)c4)c(F)c3)nc2=O)N1C [E143]
≤ 1 nM	≤ 10 nM	0.0251 nM	C[C@@H]1CCn2c(cc(OCc3cc(F)c(Oc4ccnc(C(F)(F)F)c4)c(F)c3)nc2=O)N1C [E144, (R)-8-((3,5-difluoro-4-((2-(trifluoromethyl)pyridin-4-yl)oxy)benzyl)oxy)-1,2-dimethyl-3,4-dihydro-1H-pyrimido[1,6-a]pyrimidin-6(2H)-one]
≤ 1 nM	≤ 10 nM		C[C@@H]1CCn2c(cc(OCc3ccc(Oc4ccc(C(F)(F)F)nc4)c(F)c3)nc2=O)N1C [E145, (R)-8-((3-fluoro-4-((6-(trifluoromethyl)pyridin-3-yl)oxy)benzyl)oxy)-1,2-dimethyl-3,4-dihydro-1H-pyrimido[1,6-a]pyrimidin-6(2H)-one]
≤ 1 nM	≤ 10 nM	0.0158 nM	C[C@H]1CCn2c(cc(OCc3cc(F)c(Oc4ccnc(C(F)(F)F)c4)c(F)c3)nc2=O)N1C [E146, (S)-8-((3,5-difluoro-4-((2-(trifluoromethyl)pyridin-4-yl)oxy)benzyl)oxy)-1,2-dimethyl-3,4-dihydro-1H-pyrimido[1,6-a]pyrimidin-6(2H)-one]
≤ 1 nM	≤ 10 nM		C[C@@H]1CCn2c(cc(OCc3ccc(Oc4ccnc(C(F)(F)F)c4)c(F)c3)nc2=O)N1C [E147, (R)-8-((3-fluoro-4-((2-(trifluoromethyl)pyridin-4-yl)oxy)benzyl)oxy)-1,2-dimethyl-3,4-dihydro-1H-pyrimido[1,6-a]pyrimidin-6(2H)-one]
≤ 1 nM	≤ 10 nM		C[C@@H]1CCn2c(cc(OCc3cc(F)c(Oc4cncc(C(F)(F)F)c4)c(F)c3)nc2=O)N1C [E148, (R)-8-((3,5-difluoro-4-((5-(trifluoromethyl)pyridin-3-yl)oxy)benzyl)oxy)-1,2-dimethyl-3,4-dihydro-1H-pyrimido[1,6-a]pyrimidin-6(2H)-one]
≤ 1 nM	≤ 10 nM		C[C@@H]1CCn2c(cc(OCc3ccc(Oc4cncc(C(F)(F)F)c4)c(F)c3)nc2=O)N1C [E149, (R)-8-((3-fluoro-4-((5-(trifluoromethyl)pyridin-3-yl)oxy)benzyl)oxy)-1,2-dimethyl-3,4-dihydro-1H-pyrimido[1,6-a]pyrimidin-6(2H)-one]
≤ 1 nM	≤ 10 nM		C[C@H]1CCn2c(cc(OCc3cc(F)c(Oc4cncc(C(F)(F)F)c4)c(F)c3)nc2=O)N1C [E150, (S)-8-((3,5-difluoro-4-((5-(trifluoromethyl)pyridin-3-yl)oxy)benzyl)oxy)-1,2-dimethyl-3,4-dihydro-1H-pyrimido[1,6-a]pyrimidin-6(2H)-one]
≤ 1 nM	≤ 10 nM		C[C@H]1CCn2c(cc(OCc3ccc(Oc4ccnc(C(F)(F)F)c4)c(F)c3)nc2=O)N1C [E151, (S)-8-((3-fluoro-4-((2-(trifluoromethyl)pyridin-4-yl)oxy)benzyl)oxy)-1,2-dimethyl-3,4-dihydro-1H-pyrimido[1,6-a]pyrimidin-6(2H)-one]
≤ 1 nM	≤ 10 nM		CN1c2cc(OCc3cc(F)c(Oc4ccnc(C(F)(F)F)c4)c(F)c3)nc(=O)n2CCC1(C)C [E153]
